Here are results for one compound from patent US12521394B2, “Therapeutic compositions and methods for treating cancers” (Pattern Computer, Inc., priority 2019, dated 2026).

This series has as its system Non-malignant S1 cells. As to the kind of experiment: 3D LrECM culture translational assay, Live/Dead viability/cytotoxicity (Calcein AM/EthD-1), non-malignant cells. The settings on record: 3D culture, FIG. 8B. It counts as cell-based. How it is done: Twenty-one compounds were received and reconstituted to yield 10 mM stock solution. Compounds were independently tested on a 2D culture assay to determine cell survival. Combinations of compounds were then tested on a 6×6 matrix on 2D culture to determine synergistic dosing. Then functional validation of the synergistic combinations was determined in 3D culture. (See FIG. 2).
Non-malignant S1 and Malignant T4-2 cells were evaluated for growth inhibition or cell death with the determined concentrations. The cells were plated at a density of 2×10^4 (S1) or 1×10^4 (T4-2) cells per well on top of Matrigel layer and allowed to form multicellular tumor colonies for 4-5 days. Then the cells were treated with either single-drug or drug combinations as PCI designed to evaluate synergistic interactions. Fresh media containing testing drugs were replenished every other day. At the end of the assay, we analyzed morphology and viability/cytotoxicity using phase imaging and fluorescent detection with Live/Dead using viability/cytotoxicity (Calcein AM/EthD-1) kit (FIG. 8). 3D translational assay in non-malignant S1 and malignant T4-2 cells were repeated 3 times.

In the case of `COC[C@H](NC(=O)c1cnc(C)s1)C(=O)N[C@@H](COC)C(=O)N[C@@H](Cc1ccccc1)C(=O)[C@@]1(C)CO1` [Oprozomib, N-[(2S)-3-methoxy-1-[[(2S)-3-methoxy-1-[[(2S)-1-[(2R)-2-methyloxiran-2-yl]-1-oxo-3-phenylpropan-2-yl]amino]-1-oxopropan-2-yl]amino]-1-oxopropan-2-yl]-2-methyl-1,3-thiazole-5-carboxamide], the “cell proliferation in non-malignant S1 cells” value is on record as “promoted cell proliferation”.
